Legend:
5HT2 receptor = biological target: T1, 5HT2 receptor (Rattus norvegicus, UniProt P14842); assay: Brain Serotonin 5HT2 Radioreceptor Assay (3H-ketanserin); assay type: binding; details: for IC50: rat frontal cortex membranes, 15 minutes, 37° C., read-out: RECEPTOR BINDING 5HT-2 (IC50); for inhibition at 1 µM: 0.25 h, @ 10^-6, rat frontal cortex membranes, read-out: RECEPTOR BINDING 5HT-2, % @ 10^-6
T1 construct: Membrane fragments were prepared from the frontal cortex dissected from brains obtained from female rats; from tissue; host or cells: frontal cortex, female rats
Protocol: (§1) Membrane fragments were prepared from the frontal cortex dissected from brains obtained from female rats (~150 g). The 5HT2 sites were labeled with ^3 H-ketanserin. Membrane fragments, ^3 H-ketanserin and an unlabeled test compound were incubated for 15 minutes at 37° C. Compound bound to the receptor site was separated from the remaining unbound compound by vacuum filtration.
The ability of a nonlabeled compound to compete with ^3 H-ketanserin for binding sites was a measure of the compound's affinity for the 5HT2 receptor. Specific binding was determined by the difference between total counts bound and counts bound in the presence of 10^-6 M methysergide.
Data are presented as the IC50, the concentration of nonlabeled compound required to displace 50% of the ^3 H-ketanserin specifically bound to 5HT2 binding sites.

[1] = biological target: alpha-1 adrenergic receptor; assay: Brain Alpha-1 Radioreceptor Assay (3H-prazosin); details: guinea pig brain membranes, 30 minutes, 30° C., read-out: RECEPTOR BINDING ALPHA-1 (IC50)
Protocol: Membrane fragments were prepared from the brains of mature female guinea pigs after removal of the corpus striata. The alpha-1 adrenergic receptor sites were labeled with ^3 H-prazosin. Membrane fragments, ^3 H-prazosin and an unlabeled test compound were incubated for 30 minutes at 30° C. Compound bound to the receptor site was separated from the remaining unbound radioligand by vacuum filtration. Specific binding was determined by the difference between total counts bound and counts bound in the presence of 10-^5 M phentolamine.

5HT1A receptor = biological target: T2, 5HT1A receptor (Rattus norvegicus, UniProt P19327); assay: Brain Serotonin 5HT1A Radioreceptor Assay (3H-80H-DPAT); assay type: binding; details: for IC50: rat frontal cortex membranes, 10 minutes, 37° C., read-out: RECEPTOR BINDING 5HT-1A (IC50); for inhibition at 1 µM: @ 10^-6, rat frontal cortex membranes, read-out: RECEPTOR BINDING 5HT-1A, % @ 10^-6
T2 construct: Membrane fragments were prepared from the frontal cortex dissected from brains obtained from female rats; from tissue; host or cells: frontal cortex, female rats
T2 sequence (P19327 1-422): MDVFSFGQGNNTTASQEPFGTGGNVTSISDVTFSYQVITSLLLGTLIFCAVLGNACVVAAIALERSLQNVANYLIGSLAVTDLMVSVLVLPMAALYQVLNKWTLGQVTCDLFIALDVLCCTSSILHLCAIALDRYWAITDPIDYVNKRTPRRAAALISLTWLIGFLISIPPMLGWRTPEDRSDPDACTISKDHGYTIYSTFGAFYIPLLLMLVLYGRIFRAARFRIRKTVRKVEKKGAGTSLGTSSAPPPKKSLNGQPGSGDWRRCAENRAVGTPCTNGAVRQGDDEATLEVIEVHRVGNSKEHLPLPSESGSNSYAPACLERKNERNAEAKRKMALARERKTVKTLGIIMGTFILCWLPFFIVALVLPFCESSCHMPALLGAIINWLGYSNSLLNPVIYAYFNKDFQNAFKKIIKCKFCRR
Protocol: as §1, with “The 5HT1A” for “The 5HT2”, “^3 H-80H-dipropylaminotetralin (^3 H-80H-DPAT).” for “^3 H-ketanserin.”, “^3 H-80H-DPAT” for “^3 H-ketanserin”, “for 10” for “for 15”, “C. The tubes were then placed in an ice bath for an additional 10 minutes.” for “C.”
The ability of a nonlabeled compound to compete with ^3 H-80H-DPAT for binding sites was a measure of the compound's affinity for the 5HT1A receptor. Specific binding was determined by the difference between total counts bound and counts bound in the presence of 10^-5 M serotonin.
Data are presented at the IC50, the concentration of nonlabeled compound required to displace 50% of the ^3 H-80H-DPAT specifically bound to 5HT1A binding sites.

T1 sequence (P14842 whole entry, the tested form may be a part): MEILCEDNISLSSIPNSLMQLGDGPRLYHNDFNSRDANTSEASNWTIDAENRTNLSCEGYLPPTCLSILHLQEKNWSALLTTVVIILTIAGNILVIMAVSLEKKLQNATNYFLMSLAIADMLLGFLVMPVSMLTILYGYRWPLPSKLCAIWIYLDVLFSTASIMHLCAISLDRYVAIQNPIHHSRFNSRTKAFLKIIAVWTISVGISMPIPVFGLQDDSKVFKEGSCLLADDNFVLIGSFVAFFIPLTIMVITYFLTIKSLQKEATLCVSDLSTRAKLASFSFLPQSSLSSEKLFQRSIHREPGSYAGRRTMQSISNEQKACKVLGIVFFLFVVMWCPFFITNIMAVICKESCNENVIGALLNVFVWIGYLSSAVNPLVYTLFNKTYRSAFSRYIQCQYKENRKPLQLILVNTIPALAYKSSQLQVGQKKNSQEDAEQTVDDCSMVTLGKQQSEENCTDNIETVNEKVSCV

| IC50 (5HT2 receptor) | IC50 [1] | IC50 (5HT1A receptor) | inhibition at 10 µM (5HT1A receptor; @ 10^-5, rat frontal cortex membranes, read-out: RECEPTOR BINDING 5HT-1A, % @ 10^-5) | SMILES | inhibition at 1 µM (5HT2 receptor) | inhibition at 1 µM (5HT1A receptor) |
| --- | --- | --- | --- | --- | --- | --- |
| 700 nM | 1000 nM | 28 nM | – | O=C1CCn2c(=O)n(CCN3CCN(c4cccc(C(F)(F)F)c4)CC3)c(=O)c3csc1c32 [Example 6, 4-[2-[4-(3-Trifluoromethylphenyl)piperazin-1-yl]ethyl]-3,4,5,7,8,9-hexahydrothieno[4,3,2-de]-pyrido[1,2-c]pyrimidine-3,5,9-trione] | – | – |
| 350 nM | 180 nM | 5 nM | – | O=C1CCn2c(=O)n(CCN3CCN(c4cccc(Cl)c4)CC3)c(=O)c3csc1c32 [Example 7, 4-[2-[4-(3-Chlorophenyl)piperazin-1-yl]ethyl]-3,4,5,7,8,9-hexahydrothieno[4,3,2-de]pyrido[1,2-c]pyrimidine-3,5,9-trione] | – | – |
| 300 nM | 21 nM | 5 nM | – | COc1ccccc1N1CCN(CCCn2c(=O)c3csc4c3n(c2=O)CCC4=O)CC1 [Example 10, 3,4,5,7,8,9-Hexahydro-4-[3-[4-(2-methoxyphenyl)piperazin-1-yl]propyl]thieno[4,3,2-de]pyrido[1,2-c]pyrimidine-3,5,9-trione] | – | – |
| 1500 nM | – | 45 nM | – | COc1ccccc1N1CCN(CCCCCn2c(=O)c3csc4c3n(c2=O)CCC4=O)CC1 [Example 12, 3,4,5,7,8,9-Hexahydro-4-[5-[4-(2-methoxyphenyl)piperazin-1-yl]pentyl]thieno[4,3,2-de]pyrido[1,2-c]pyrimidine-3,5,9-trione] | – | – |
| 2000 nM | 35 nM | 160 nM | – | COc1ccccc1N1CCN(CCn2c(=O)c3csc4c3n(c2=O)CCCCC4=O)CC1 [Example 16, 4,7,8,9,10,11-Hexahydro-4-[2-[4-(2-methoxyphenyl)piperazin-1-yl]ethyl]thieno[4,3,2-de]pyrimido[3,4-a]azocine-3,5,11-trione] | – | – |
| 180 nM | 22000 nM | – | – | O=C1CCn2c(=O)n(CCN3CCC(=C(c4ccc(F)cc4)c4ccc(F)cc4)CC3)c(=O)c3csc1c32 [Example 20, 4-[2-[4-[Bis(4-fluorophenyl)methylene]piperidin-1-yl]ethyl]-3,4,5,7,8,9-hexahydrothieno[4,3,2-de]pyrimidine-3,5,9-trione] | – | 47% |
| 270 nM | 0.4 nM | 62 nM | – | COc1ccccc1N1CCN(CCn2c(=O)c3csc4c3n(c2=O)CCCC4O)CC1 (stereo not shown) [Example 22, 10-Hydroxy-4,7,8,9-tetrahydro-4-[2-[4-(2-methoxyphenyl)piperazin-1-yl]ethyl]thieno[4,3,2-de]pyrimido[3,4-a]azepine-3,5-dione] | – | – |
| 150 nM | < 1 nM | 20 nM | – | CON=C1CCn2c(=O)n(CCN3CCN(c4ccccc4OC)CC3)c(=O)c3c(C)sc1c32 [Example 28, 3,4,5,7,8,9-Hexahydro-9-methoxyimino-4-[2-[4-(2-methoxyphenyl)piperazin-1-yl]ethyl]-2-methyl-thieno[4,3,2-de]pyrido[1,2-c]pyrimidine-3,5-dione] | – | – |
| 750 nM | 0.35 nM | 580 nM | – | COc1ccccc1N1CCN(CCn2c(=O)c3csc4c3n(c2=O)CCC4NC(C)=O)CC1 (stereo not shown) [Example 39, 9-Acetylamino-3,4,5,7,8,9-hexahydro-4-[2-[4-(2-methoxyphenyl)piperazin-1-yl]ethyl]thieno[4,3,2-de]pyrido[1,2-c]pyrimidine-3,5-dione] | – | – |
| 2500 nM | 3 nM | – | 45% | COc1ccccc1N1CCN(CCn2c(=O)c3csc4c3n(c2=O)CCC4NC(=O)c2ccccc2)CC1 (stereo not shown) [Example 40, 9-Benzoylamino-3,4,5,7,8,9-hexahydro-4-[2-[4-(2-methoxyphenyl)piperazin-1-yl]ethyl]thieno[4,3,2-de]pyrido[1,2-c]pyrimidine-3,5-dione] | – | – |
| 1000 nM | 40000 nM | 1000 nM | – | CON=C1CCn2c(=O)n(CCN3CCN(c4cccc(Cl)c4)CC3)c(=O)c3csc1c32 [Example 41, 4-[2-[4-(3-Chlorophenyl)piperazin-1-yl]ethyl]-3,4,5,7,8,9-hexahydro-9-methoxyiminothieno[4,3,2-de]pyrido[1,2-c]pyrimidine-3,5-dione] | – | – |
| 630 nM | 540 nM | 400 nM | – | O=C1CCn2c(=O)n(CCCCN3CCC(C(=O)c4ccc(F)cc4)CC3)c(=O)c3csc1c32 [Example 42, 4-[4-[4-(4-Fluorobenzoyl)piperidin-1-yl]butyl]-3,4,5,7,8,9-hexahydrothieno[4,3,2-de]pyrido[1,2-c]pyrimidine-3,5,9-trione] | – | – |
| 430 nM | – | 52 nM | – | O=C1CCn2c(=O)n(CCCCCN3CCN(c4cccc(C(F)(F)F)c4)CC3)c(=O)c3csc1c32 [Example 43] | – | – |
| 130 nM | – | 200 nM | – | CON=C1CCn2c(=O)n(CCCCCN3CCN(c4cccc(C(F)(F)F)c4)CC3)c(=O)c3csc1c32 [Example 44, 4-[5-[4-(3-Trifluoromethylphenyl)piperazin-1-yl]-pentyl]-3,4,5,7,8,9-hexahydro-9-methoxyiminothieno[4,3,2-de]pyrido[1,2-c]pyrimidine-3,5-dione] | – | – |

| SMILES | IC50 (5HT2 receptor) | IC50 [1] | IC50 (5HT1A receptor) | inhibition at 10 µM (5HT1A receptor; @ 10^-5, rat frontal cortex membranes, read-out: RECEPTOR BINDING 5HT-1A, % @ 10^-5) | inhibition at 1 µM (5HT2 receptor) | inhibition at 1 µM (5HT1A receptor) |
| --- | --- | --- | --- | --- | --- | --- |
| COc1ccccc1N1CCN(CCCCn2c(=O)c3csc4c3n(c2=O)CCC4=O)CC1 [Example 11, 3,4,5,7,8,9-Hexahydro-4-[4-[4-(2-methoxyphenyl)-piperazin-1-yl]butyl]thieno[4,3,2-de]pyrido[1,2-c]pyrimidine-3,5,9-trione] | – | 0.5 nM | 0.9 nM | – | 33% | – |
| O=C1CCn2c(=O)n(CCN3CC=C(c4ccccc4)CC3)c(=O)c3csc1c32 [Example 17, 3,4,5,7,8,9-Hexahydro-4-[2-(4-phenyl-1,2,3,6-tetrahydropyridin-1-yl)ethyl]thieno[4,3,2-de]pyrido[1,2-c]pyrimidine-3,5,9-trione] | – | 7.6 nM | – | – | 21% | 1.8% |
| O=C1CCn2c(=O)n(CCCCN3CCN(c4cccc(C(F)(F)F)c4)CC3)c(=O)c3csc1c32 [Example 18, 4-[4-[4-(3-Trifluoromethylphenyl)piperazin-1-yl]butyl]-3,4,5,7,8,9-hexahydrothieno[4,3,2-de]-pyrido[1,2-c]pyrimidine-3,5,9-trione] | – | 4500 nM | – | – | 47% | – |
| O=C1CCn2c(=O)n(CCN3CCC(C(=O)c4ccc(F)cc4)CC3)c(=O)c3csc1c32 [Example 19, 4-[2-[4-(4-Fluorobenzoyl)piperidin-1-yl]ethyl]-3,4,5,7,8,9-hexahydrothieno[4,3,2-de]pyrido[1,2-c]pyrimidine-3,5,9-trione] | 1 nM | 1000 nM | – | – | – | 35% |
| CON=C1CCCn2c(=O)n(CCN3CCN(c4ccccc4OC)CC3)c(=O)c3csc1c32 [Example 27, 4,7,8,9-Tetrahydro-10-methoxyimino-4-[2-[4-(2-methoxyphenyl)piperazin-1-yl]ethyl]thieno[4,3,2-de]pyrimido[3,4-a]azepine-3,5-dione] | – | 0.14 nM | 70 nM | – | 11% | – |
| CON=C1CCn2c(=O)n(CCCN3CCN(c4ccccc4OC)CC3)c(=O)c3csc1c32 [Example 29, 3,4,5,7,8,9-Hexahydro-9-methoxyimino-4-[3-[4-(2-methoxyphenyl)piperazin-1-yl]propyl]thieno-[4,3,2-de]pyrido[1,2-c]pyrimidine-3,5-dione] | – | 26 nM | – | – | 34.3% | 5.2% |
| O=C1CCn2c(=O)n(CCCCCN3CCC(=C(c4ccc(F)cc4)c4ccc(F)cc4)CC3)c(=O)c3csc1c32 [Example 45, 4-[5-[4-[Bis(4-fluorophenyl)methylene]piperadin-1-yl]pentyl]-3,4,5,7,8,9-hexahydrothieno[4,3,2-de]pyrimidine-3,5,9-trione Monooxalate] | 55 nM | – | 240 nM | – | – | – |
